Laboratory results from publication PMC5698418 (Nature Communications, 2017).

Key:
HDAC2 = target: T1, HDAC2 (Homo sapiens, UniProt Q92769); assay: Biochemical HDAC assay (BPS Bioscience), HDAC2; conditions: 25 µM
T1 construct: purchased BPS Bioscience (San Diego, CA), contract assay service

GluA1 mRNA = GluA1 mRNA by RT-qPCR in cortical neurons; assay type: cell-based, mouse; conditions: BDNF plus AK-7 16.7 µM vs BDNF plus vehicle, 6 h
Protocol: After experimental treatment, total RNA was isolated from primary cortical neuron cultures using the TRIzol method (Invitrogen). The concentration of total RNA was measured using a NanoDrop 1000 spectrophotometer (Thermo Fisher Scientific, Rockford, IL) and first-strand complementary DNA (cDNA) was synthesized using the iScript cDNA Synthesis Kit (Bio-Rad, Hercules, CA). Real-time PCRs were performed using gene-specific primers and monitored by quantification of SYBR Green I fluorescence using a Bio-Rad CFX96 Real-Time Detection System. Expression was normalized against Gapdh expression. The relative quantification from at least three biological replicates was performed using the comparative cycle threshold (∆∆CT) method.
Primers for real-time reverse transcription PCR experiments were: Arc, 5′-[…]-3′ (forward) and 5′-[…]-3′ (reverse); Map2, 5′-[…]-3′ (forward) and 5′-[…]-3′ (reverse); GluA1, 5′-[…]-3′ (forward) and 5′-[…]-3′ (reverse); GluA2, 5′-[…]-3′ (forward) and 5′-[…]-3′ (reverse); Gapdh, 5′-[…]-3′ (forward) and 5′-[…]-3′ (reverse).
Supplementary Fig. 6. […] Bars represent mean fold-change and error bars indicate range from five biological replicates.

HDAC1 = target: T2, HDAC1 (Homo sapiens, UniProt Q13547); assay: Biochemical HDAC assay (BPS Bioscience), HDAC1; conditions: 25 µM
T2 construct: purchased BPS Bioscience (San Diego, CA), contract assay service

[1] = test system: Arc puncta in dendrites of primary cortical neurons; assay: Arc puncta along Map2-labeled dendrites (immunocytochemistry); assay type: cell-based, mouse; conditions: 16.7 µM with BDNF, vs untreated and BDNF alone; for BDNF: BDNF alone vs untreated
Source text: Chemical structure of each compound is presented on top. b Graphs show mean (n = 5) Arc/β-actin ratio (±SEM) for cells treated as in a. […] Tukey’s HSD post hoc test, *p < 0.05; **p < 0.01, ***p < 0.005; ****p < 0.0001. […] Representative captures of DIV14 mouse primary cortical neurons from each experimental condition co-immunostained for Arc (red fluorophore) and Map2 (green fluorophore). White arrowheads show examples of discrete Arc puncta. […] Tukey’s HSD post hoc test, *p < 0.05; ***p < 0.005; ****p < 0.0001
Indirect immunofluorescence detection of antigens was carried out using cortical neurons cultured on poly-L-lysine/laminin-coated coverslips in 24-well plates at a density of 0.1 × 10^7 per well. After experimental treatment, cells were washed twice with PBS and fixed for 30 min at room temperature with 4% paraformaldehyde in PBS. After fixation, cells were washed twice with PBS, permeabilized with PBST (PBS + 0.25% Triton X-100) for 20 min, blocked in blocking solution (PBS + 5% normal goat serum) for another 30 min, and finally incubated overnight at 4 °C with the first primary antibody in blocking solution. The next day, coverslips were extensively washed with PBS and incubated for 2 h at room temperature in the appropriate fluorophore-conjugated secondary antibody solution (Alexa 488- or Alexa 594-conjugated secondary antibody (Molecular Probes, Invitrogen) in blocking solution). After washing with PBS, the coverslips were incubated again overnight in primary antibody solution for the second antigen, and the procedure for conjugation of the fluorophore-conjugated secondary antibody was repeated as above. Finally, cell nuclei were counterstained with 4′,6-diamidino-2-phenylindole (DAPI), and coverslips were mounted on glass slides with ProLong Antifade reagent (Invitrogen).
Quantification of surface GluA1 puncta was performed according to the following strategy. First, overlapping digital images of GluA1 and Map2 immunostainings were collected using a Zeiss AxioObserver Z1 inverted microscope and ×63 oil immersion objective. Second, thresholding and segmentation based on the Map2 images was used to remove GluA1 signals outside of dendritic processes. Importantly, the same background/foreground cutoff threshold was used for images of all experimental conditions. Third, the length of dendrites for each image set was measured and recorded. Finally, distinct GluA1 foreground objects along dendrites >5 pixels were counted using the particle analysis tool in ImageJ and presented as the average number of GluA1 puncta per µm of dendrite length for each experimental condition.

[2] = test system: BDNF-induced nuclear Arc expression in primary cortical neurons; assay: Chemogenomic screen: high-content image-based assay of BDNF-induced nuclear Arc expression (96-well); assay type: cell-based, mouse
How it was run: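 DIV13 mouse primary cortical neurons (30,000 cells/well) are treated with compound at 16.7 µM and BDNF, in three biological replicates. Arc and acetyl-H3K9 are immunostained and imaged at ×40, and nuclear Arc signal is quantified automatically using acetyl-H3K9 as the nuclear mask.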

T1 sequence (Q92769 whole entry): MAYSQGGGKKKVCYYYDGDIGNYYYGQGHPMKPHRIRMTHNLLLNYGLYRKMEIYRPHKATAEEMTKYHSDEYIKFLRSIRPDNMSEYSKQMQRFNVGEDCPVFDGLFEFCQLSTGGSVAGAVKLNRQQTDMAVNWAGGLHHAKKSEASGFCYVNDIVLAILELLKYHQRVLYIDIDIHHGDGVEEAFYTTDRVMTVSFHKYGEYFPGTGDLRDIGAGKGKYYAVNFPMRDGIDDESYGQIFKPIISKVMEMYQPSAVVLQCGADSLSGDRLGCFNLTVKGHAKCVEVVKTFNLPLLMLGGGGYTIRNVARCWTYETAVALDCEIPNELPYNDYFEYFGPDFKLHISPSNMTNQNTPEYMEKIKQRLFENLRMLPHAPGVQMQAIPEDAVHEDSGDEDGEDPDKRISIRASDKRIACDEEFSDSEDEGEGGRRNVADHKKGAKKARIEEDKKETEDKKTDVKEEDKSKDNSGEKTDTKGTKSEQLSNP
T2 sequence (Q13547 whole entry): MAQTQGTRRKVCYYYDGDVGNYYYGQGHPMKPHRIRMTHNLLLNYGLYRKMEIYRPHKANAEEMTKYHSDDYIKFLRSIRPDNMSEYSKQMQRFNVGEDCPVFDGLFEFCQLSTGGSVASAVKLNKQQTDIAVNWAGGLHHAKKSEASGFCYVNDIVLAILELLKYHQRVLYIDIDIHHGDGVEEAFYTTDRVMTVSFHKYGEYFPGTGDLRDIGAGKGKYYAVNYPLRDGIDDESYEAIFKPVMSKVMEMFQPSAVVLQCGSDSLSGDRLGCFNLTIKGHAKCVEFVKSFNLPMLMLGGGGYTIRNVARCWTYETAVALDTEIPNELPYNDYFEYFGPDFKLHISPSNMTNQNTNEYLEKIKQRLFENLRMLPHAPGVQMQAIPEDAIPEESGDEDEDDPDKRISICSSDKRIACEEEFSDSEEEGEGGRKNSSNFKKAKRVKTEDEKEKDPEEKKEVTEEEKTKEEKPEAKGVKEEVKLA

O=C(Nc1cccc(Br)c1)c1cccc(S(=O)(=O)N2CCCCCC2)c1 [AK-7]
inhibitory activity toward HDAC2 (HDAC2): failed to show any inhibitory activity | GluA1 mRNA expression (GluA1 mRNA): does not affect | inhibitory activity toward HDAC1 (HDAC1): failed to show any inhibitory activity | number of Arc puncta in dendritic projections [1]: significantly greater number of Arc puncta | rank among potentiators of BDNF-induced nuclear Arc expression in screen ([2]; 16.7 µM, three biological replicates): first | Percentage of cell with nuclear Arc immunostaining above 2σ threshold ([2]; chemogenomic (SMART) screen, BDNF-induced nuclear Arc expression, primary cortical neurons, BDNF control 19.5): 61.6% | Fold-change — Normalized to DMSO control (BDNF) ([2]; nuclear Arc-positive cells relative to DMSO + BDNF control, negative values = decrease): 3.2 fold
